ChEMBL document CHEMBL1201862, “PubChem BioAssay data set” (2004)
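Five compound concentrations were applied to cells in 96-well plates for 48 hours; endpoints were derived by simple linear interpolation of the resulting dose-response curve. GI50 marks 50% less growth.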 Activity calls are given as the source filed them. Rule as the data show it: active = GI50 up to about 1.1 µM and inactive = higher.

What was measured:
Test in all cases: inhibition of tumour cell growth, NCI panel, 48 h
[1] = test system: DU-145
[2] = test system: HCC 2998
[3] = test system: HL-60
[4] = test system: MDA-MB-435
[5] = test system: MDA-N
[6] = test system: Malme-3M
[7] = test system: NCI-H460
[8] = test system: RPMI-8226
[9] = test system: RXF 393
[10] = test system: SF-268
[11] = test system: SK-MEL-2
[12] = test system: SK-OV-3
[13] = test system: SN12C
[14] = test system: SNB-19
[15] = test system: UACC-257
[16] = test system: UO-31
[17] = test system: HT-29
[18] = test system: SW-620
[19] = test system: U-251

SMILES | GI50 [1] | GI50 [2] | GI50 [3] | GI50 [4] | GI50 [5] | GI50 [6] | GI50 [7] | GI50 [8] | GI50 [9] | GI50 [10] | GI50 [11] | GI50 [12] | GI50 [13] | GI50 [14] | GI50 [15] | GI50 [16] | GI50 [17] | GI50 [18] | GI50 [19]
Cc1c(C#N)c2nnn(-c3ccccc3)c(=O)n2c1-c1ccccc1 | 1.73 µM (inactive) | 3.34 µM (inactive) | 0.376 µM (active) | 0.307 µM (active) | 0.179 µM (active) | 26.5 µM (inactive) | 1.92 µM (inactive) | 1.24 µM (inactive) | 2.48 µM (inactive) | 7.85 µM (inactive) | 4.53 µM (inactive) | 1.41 µM (inactive) | 4.65 µM (inactive) | 3.31 µM (inactive) | 25.4 µM (inactive) | 5.75 µM (inactive) | – | – | –
CC(C)CCCC(C)[C@H]1CC[C@H]2NCCCC[C@]12C (stereo not given in full) | 5.56 µM (inactive) | 1.37 µM (inactive) | 1.93 µM (inactive) | 2.01 µM (inactive) | 1.96 µM (inactive) | 4.61 µM (inactive) | 2.02 µM (inactive) | 1.92 µM (inactive) | 2.14 µM (inactive) | 13.1 µM (inactive) | 2.88 µM (inactive) | 14.3 µM (inactive) | 6.24 µM (inactive) | 5.36 µM (inactive) | 3.83 µM (inactive) | 7.36 µM (inactive) | 2.34 µM (inactive) | 2.61 µM (inactive) | 2.4 µM (inactive)
CCOC(=O)CC/C(=N/Nc1ccc(Cl)cc1[N+](=O)[O-])C(=O)OCC | > 100 µM (inactive) | 26.2 µM (inactive) | > 100 µM (inactive) | > 100 µM (inactive) | > 100 µM (inactive) | > 100 µM (inactive) | > 100 µM (inactive) | > 100 µM (inactive) | > 100 µM (inactive) | > 100 µM (inactive) | > 100 µM (inactive) | > 100 µM (inactive) | > 100 µM (inactive) | > 100 µM (inactive) | > 100 µM (inactive) | > 100 µM (inactive) | > 100 µM (inactive) | > 100 µM (inactive) | > 100 µM (inactive)
O=C(O)c1ccc(Nc2nc3cc(C(F)(F)F)ccc3n3cccc23)cc1 | 49.2 µM (inactive) | 15.7 µM (inactive) | 18.4 µM (inactive) | 34.7 µM (inactive) | 54.6 µM (inactive) | 84.7 µM (inactive) | 16.1 µM (inactive) | 12.5 µM (inactive) | 17.1 µM (inactive) | 40.6 µM (inactive) | 31.3 µM (inactive) | 40.1 µM (inactive) | – | 54 µM (inactive) | 30.2 µM (inactive) | > 100 µM (inactive) | 10.4 µM (inactive) | 34.7 µM (inactive) | 21.3 µM (inactive)
COC(=O)C(CCSC)NC(=O)CSc1nnc(COc2ccc(Cl)cc2)n1-c1ccccc1 (stereo not given) | 18.2 µM (inactive) | 7.52 µM (inactive) | 18.3 µM (inactive) | 18.4 µM (inactive) | 18.9 µM (inactive) | 21.3 µM (inactive) | 14.4 µM (inactive) | 0.883 µM (active) | 19.1 µM (inactive) | 17.1 µM (inactive) | 16 µM (inactive) | 14.5 µM (inactive) | 17.8 µM (inactive) | 23.5 µM (inactive) | 16.9 µM (inactive) | 3.94 µM (inactive) | 18.3 µM (inactive) | 21.7 µM (inactive) | 17.1 µM (inactive)
CCN(CC)Cc1ccccc1CC(=O)N1c2ccccc2C(=O)Nc2cccnc21 | > 100 µM (inactive) | > 100 µM (inactive) | 46 µM (inactive) | > 100 µM (inactive) | > 100 µM (inactive) | > 100 µM (inactive) | > 100 µM (inactive) | > 100 µM (inactive) | > 100 µM (inactive) | > 100 µM (inactive) | > 100 µM (inactive) | > 100 µM (inactive) | > 100 µM (inactive) | > 100 µM (inactive) | > 100 µM (inactive) | – | > 100 µM (inactive) | > 100 µM (inactive) | > 100 µM (inactive)
CCCC(=O)NC(Nc1ccc(S(=O)(=O)Nc2ccc(OC)nn2)cc1)(C(F)(F)F)C(F)(F)F | > 100 µM (inactive) | > 100 µM (inactive) | > 100 µM (inactive) | > 100 µM (inactive) | > 100 µM (inactive) | > 100 µM (inactive) | > 100 µM (inactive) | > 100 µM (inactive) | > 100 µM (inactive) | > 100 µM (inactive) | > 100 µM (inactive) | > 100 µM (inactive) | > 100 µM (inactive) | > 100 µM (inactive) | > 100 µM (inactive) | > 100 µM (inactive) | > 100 µM (inactive) | > 100 µM (inactive) | > 100 µM (inactive)
COc1cc(C2c3cc4c(cc3OC(NNc3ccccc3)C2C)OCO4)cc(OC)c1OC (stereo not given) | 2.11 µM (inactive) | 0.953 µM (active) | 1.58 µM (inactive) | 0.305 µM (active) | 0.255 µM (active) | 0.935 µM (active) | 1.02 µM (active) | 1.43 µM (inactive) | 1.54 µM (inactive) | 1.86 µM (inactive) | 1.23 µM (inactive) | 2.08 µM (inactive) | 2.99 µM (inactive) | 1.32 µM (inactive) | 2.07 µM (inactive) | 0.91 µM (active) | 0.986 µM (active) | 1.4 µM (inactive) | 1.12 µM (inactive)
C1CCN2CC34CC(CC5CCCN(C6CCCC3N6)C54)C2C1 (stereo not given) | > 100 µM (inactive) | > 100 µM (inactive) | > 100 µM (inactive) | > 100 µM (inactive) | > 100 µM (inactive) | > 100 µM (inactive) | > 100 µM (inactive) | > 100 µM (inactive) | 78.9 µM (inactive) | > 100 µM (inactive) | > 100 µM (inactive) | > 100 µM (inactive) | > 100 µM (inactive) | > 100 µM (inactive) | > 100 µM (inactive) | – | > 100 µM (inactive) | > 100 µM (inactive) | > 100 µM (inactive)
COC(=O)c1c(OC(C)=O)ccc2c1c1cc3ccccc3c(OC(C)=O)c1n2C | 9.86 µM (inactive) | 33.6 µM (inactive) | 19.3 µM (inactive) | 25.6 µM (inactive) | 33.8 µM (inactive) | 14.4 µM (inactive) | 10.4 µM (inactive) | 8.63 µM (inactive) | 24.8 µM (inactive) | 27.7 µM (inactive) | 29.7 µM (inactive) | 6.65 µM (inactive) | 40.6 µM (inactive) | 68.5 µM (inactive) | – | 17.1 µM (inactive) | 15.2 µM (inactive) | – | 61 µM (inactive)
N=c1c2c(=S)n(-c3ccccc3)c(=S)n(-c3ccccc3)c2nc(SCCN2CCOCC2)n1-c1ccccc1 | 1.83 µM (inactive) | 1.77 µM (inactive) | 1.41 µM (inactive) | 1.82 µM (inactive) | 2.26 µM (inactive) | 1.66 µM (inactive) | 2.49 µM (inactive) | 1.04 µM (active) | 1.79 µM (inactive) | 1.79 µM (inactive) | 2.86 µM (inactive) | 6.1 µM (inactive) | 2.06 µM (inactive) | 10.4 µM (inactive) | 2.11 µM (inactive) | – | 2.05 µM (inactive) | 1.91 µM (inactive) | 1.99 µM (inactive)
O=C1CC(O)c2c(Br)sc(Br)c21 (stereo not given) | 10.4 µM (inactive) | 6 µM (inactive) | 3.2 µM (inactive) | 5.58 µM (inactive) | 8.81 µM (inactive) | 17.1 µM (inactive) | 16.9 µM (inactive) | 2.47 µM (inactive) | 2.5 µM (inactive) | 18.1 µM (inactive) | 14 µM (inactive) | 16.6 µM (inactive) | 17.5 µM (inactive) | 18.6 µM (inactive) | 3.85 µM (inactive) | 2.61 µM (inactive) | 17.7 µM (inactive) | 1.93 µM (inactive) | 4.54 µM (inactive)
COc1ccc(C2c3cc4c(cc3OC3(OC)COC(=O)C23)OCO4)c(OC)c1 (stereo not given) | 31.9 µM (inactive) | 30 µM (inactive) | 2.32 µM (inactive) | 1.71 µM (inactive) | 1.77 µM (inactive) | 8.63 µM (inactive) | 7.14 µM (inactive) | 3.56 µM (inactive) | 6.59 µM (inactive) | 14.6 µM (inactive) | 12.6 µM (inactive) | 15.9 µM (inactive) | 15.6 µM (inactive) | 14.2 µM (inactive) | 6.24 µM (inactive) | 14.9 µM (inactive) | 3.4 µM (inactive) | 6.43 µM (inactive) | 7.35 µM (inactive)
Cc1nn(C(=O)c2ccccc2O)c2c1C(c1ccccc1)SC(=N)N2 (stereo not given) | 0.627 µM (active) | 7.69 µM (inactive) | 1.61 µM (inactive) | 0.416 µM (active) | 1.2 µM (inactive) | 0.479 µM (active) | 3.64 µM (inactive) | 2.97 µM (inactive) | > 10 µM (inactive) | 3.27 µM (inactive) | 3.58 µM (inactive) | 5.6 µM (inactive) | 2.25 µM (inactive) | 6.38 µM (inactive) | 2.01 µM (inactive) | – | 5.38 µM (inactive) | 3.58 µM (inactive) | 2.11 µM (inactive)
COc1ccc(C(C)NNC(=O)c2cc[n+]([BH2-]C#N)cc2)cc1F (stereo not given) | > 100 µM (inactive) | > 100 µM (inactive) | > 100 µM (inactive) | > 100 µM (inactive) | > 100 µM (inactive) | > 100 µM (inactive) | > 100 µM (inactive) | > 100 µM (inactive) | > 100 µM (inactive) | > 100 µM (inactive) | > 100 µM (inactive) | > 100 µM (inactive) | > 100 µM (inactive) | > 100 µM (inactive) | > 100 µM (inactive) | > 100 µM (inactive) | > 100 µM (inactive) | > 100 µM (inactive) | > 100 µM (inactive)
